Results on 21 compounds are retold here after patent US11919887B2, “Substituted tetrahydrofurans as modulators of sodium channels” (Vertex Pharmaceuticals Incorporated, priority 2019, dated 2024).

The target in the test is human Nav 1.8 (Homo sapiens, UniProt Q9Y5Y9). Kind of test: E-VIPR assay detecting and measuring Nav inhibition (HEK cells expressing truncated human Nav 1.8). As to conditions: in the Presence of Human Serum in the E-VIPR Assay. It counts as cell-based. The source says:
Sodium ion channels are voltage-dependent proteins that can be activated by inducing membrane voltage changes by applying electric fields. The electrical stimulation instrument and methods of use, referred to as E-VIPR, are described in International Publication No. WO 2002/008748 A3 and C.-J. Huang et al. Characterization of voltage-gated sodium channel blockers by electrical stimulation and fluorescence detection of membrane potential, 24 Nature Biotech. 439-46 (2006), both of which are incorporated by reference in their entirety. The instrument comprises a microtiter plate handler, an optical system for exciting the coumarin dye while simultaneously recording the coumarin and oxonol emissions, a waveform generator, a current- or voltage-controlled amplifier, and parallel electrode pairs that are inserted into assay plate wells. Under integrated computer control, this instrument passes user-programmed electrical stimulus protocols to cells within the wells of the microtiter plate.
16-20 hours prior to running the assay on E-VIPR, HEK cells expressing a truncated form of human Nav 1.8 with full channel activity were seeded into microtiter 384-well plates, pre-coated with matrigel, at a density of 25,000 cells per well. 2.5-5% KIR2.1 Bacmam virus was added to the final cell suspension before seeding into cell plates. HEK cells were grown in Dulbecco's Modified Eagle's Medium (DMEM) supplemented with 10% FBS (Fetal Bovine Serum, qualified; Sigma #F4135), 1% NEAA (Non-Essential Amino Acids, Gibco #11140), 1% HEPES (Gibco #15630), 1% Pen-Strep (Penicillin-Streptomycin; Gibco #15140) and 5 μg/ml Blasticidin (Gibco #R210-01). Cells were expanded in vented cap cell culture flasks, with 90-95% humidity and 5% CO2.
Human Serum (HS, Millipore #S1P1-01KL, or Sigma SLBR5469V and SLBR5470V as a 50%/50% mixture, for 25% assay final concentration)
Bath1 Buffer: • Sodium Chloride 160 mM (9.35 g/L), Potassium Chloride, 4.5 mM (0.335 g/L), Glucose 10 mM (1.8 g/L), Magnesium Chloride (Anhydrous) 1 mM (0.095 g/L), Calcium Chloride 2 mM (0.222 g/L), HEPES 10 mM (2.38 g/L) in water.
Na/TMA Cl Bath1 Buffer: • Sodium Chloride 96 mM (5.61 g/L), Potassium Chloride 4.5 mM (0.335 g/L), Tetramethylammonium (TMA)-Cl 64 mM (7.01 g/L), Glucose 10 mM (1.8 g/L), Magnesium Chloride (Anhydrous) 1 mM (0.095 g/L), Calcium Chloride 2 mM (0.222 g/L) HEPES 10 mM (2.38 g/L) in water.
Hexyl Dye Solution (2× concentration): • Bath1 Buffer containing 0.5% β-cyclodextrin (made fresh prior to each use, Sigma #C4767), 8 μM CC2-DMPE and 2 μM DiSBAC6(3). The solution was made by adding 10% Pluronic F127 stock equal to combined volumes of CC2-DMPE and DiSBAC6(3). The order of preparation was first mix Pluronic and CC2-DMPE, then add DiSBAC6(3), then while vortexing add Bath1/β-Cyclodextrin.
Compound Loading Buffer (2×concentration): Na/TMA Cl Bath1 Buffer containing HS (omitted in experiments run in the absence of human serum (HS)) 50%, VABSC-1 1 mM, BSA 0.2 mg/ml (in Bath-1), KCl 9 mM, DMSO 0.75%.
Assay Protocol (7 Key Steps): • 1) To reach the final concentration in each well, 400 nL of each compound was pre-spotted (in neat DMSO) into polypropylene compound plates at 250×desired final concentration from an intermediate stock concentration of 0.075 mM, in an 11 point dose response, 3-fold dilution, resulting in a top dose of 300 nM final concentration in the cell plate. Vehicle control (neat DMSO), and positive control (an established Nav1.8 inhibitor, 25 μM final in assay in DMSO) were added manually to the outermost columns of each plate respectively. The compound plate was backfilled with 45 μL per well of Compound Loading Buffer resulting in a 250 fold dilution of compound following a 1:1 transfer of compound into the cell plate (see Step 6). Final DMSO concentration for all wells in the assay was 0.625% (0.75% DMSO was supplemented to the Compound Loading Buffer for a final DMSO concentration of 0.625%). […]

Like-named read-outs stand apart in the source and are kept apart here. A value given as a limit tells only on which side of the number the result lay.

Chain of human Nav 1.8 (Q9Y5Y9 whole entry, looked up, the tested form may be a part): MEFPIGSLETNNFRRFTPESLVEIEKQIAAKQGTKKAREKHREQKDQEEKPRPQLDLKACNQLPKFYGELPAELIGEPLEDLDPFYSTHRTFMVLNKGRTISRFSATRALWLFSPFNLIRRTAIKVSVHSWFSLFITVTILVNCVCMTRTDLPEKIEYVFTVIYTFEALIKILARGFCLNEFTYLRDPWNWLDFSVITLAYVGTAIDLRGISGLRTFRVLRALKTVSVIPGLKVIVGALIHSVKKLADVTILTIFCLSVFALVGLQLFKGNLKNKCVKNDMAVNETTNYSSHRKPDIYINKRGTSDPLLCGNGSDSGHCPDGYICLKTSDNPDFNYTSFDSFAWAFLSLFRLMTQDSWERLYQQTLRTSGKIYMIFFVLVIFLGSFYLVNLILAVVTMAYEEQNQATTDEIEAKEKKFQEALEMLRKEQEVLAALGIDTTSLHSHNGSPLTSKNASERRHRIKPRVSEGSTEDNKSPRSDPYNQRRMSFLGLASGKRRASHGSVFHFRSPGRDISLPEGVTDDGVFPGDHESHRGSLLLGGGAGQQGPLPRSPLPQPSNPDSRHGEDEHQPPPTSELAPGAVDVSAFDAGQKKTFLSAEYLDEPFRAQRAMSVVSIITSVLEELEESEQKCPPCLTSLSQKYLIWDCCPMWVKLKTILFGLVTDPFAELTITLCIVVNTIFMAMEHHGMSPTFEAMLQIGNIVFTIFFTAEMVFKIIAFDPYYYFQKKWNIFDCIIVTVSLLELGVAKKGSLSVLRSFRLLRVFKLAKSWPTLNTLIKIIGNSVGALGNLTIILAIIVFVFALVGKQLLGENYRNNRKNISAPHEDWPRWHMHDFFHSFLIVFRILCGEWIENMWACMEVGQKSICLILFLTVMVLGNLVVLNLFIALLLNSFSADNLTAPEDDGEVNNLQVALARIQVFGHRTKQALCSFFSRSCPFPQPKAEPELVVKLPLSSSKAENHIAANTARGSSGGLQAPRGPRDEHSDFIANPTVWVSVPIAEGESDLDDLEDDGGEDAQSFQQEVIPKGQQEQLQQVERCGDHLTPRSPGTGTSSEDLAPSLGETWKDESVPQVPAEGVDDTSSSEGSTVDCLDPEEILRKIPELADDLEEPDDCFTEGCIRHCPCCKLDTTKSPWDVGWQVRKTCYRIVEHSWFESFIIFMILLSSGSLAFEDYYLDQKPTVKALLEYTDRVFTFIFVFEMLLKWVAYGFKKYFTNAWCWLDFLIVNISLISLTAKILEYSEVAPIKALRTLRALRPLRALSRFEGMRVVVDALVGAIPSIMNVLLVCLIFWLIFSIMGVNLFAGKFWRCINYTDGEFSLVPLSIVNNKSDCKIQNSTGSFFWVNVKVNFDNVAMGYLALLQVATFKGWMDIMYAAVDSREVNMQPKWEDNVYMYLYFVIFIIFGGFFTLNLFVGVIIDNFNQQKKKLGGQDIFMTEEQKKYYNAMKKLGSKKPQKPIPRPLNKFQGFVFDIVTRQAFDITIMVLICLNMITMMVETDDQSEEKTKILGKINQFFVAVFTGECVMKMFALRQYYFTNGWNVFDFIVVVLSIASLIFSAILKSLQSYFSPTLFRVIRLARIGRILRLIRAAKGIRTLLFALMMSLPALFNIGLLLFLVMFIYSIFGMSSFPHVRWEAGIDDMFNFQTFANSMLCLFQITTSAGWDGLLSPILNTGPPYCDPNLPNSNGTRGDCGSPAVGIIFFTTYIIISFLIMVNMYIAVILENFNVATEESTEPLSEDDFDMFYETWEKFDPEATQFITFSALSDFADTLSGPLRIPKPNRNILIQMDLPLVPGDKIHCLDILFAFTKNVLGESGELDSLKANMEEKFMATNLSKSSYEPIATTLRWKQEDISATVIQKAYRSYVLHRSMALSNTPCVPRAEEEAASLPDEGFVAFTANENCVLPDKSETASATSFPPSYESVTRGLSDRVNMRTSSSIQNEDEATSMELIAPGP

On to `COc1c([C@H]2C[C@@](C)(C(F)(F)F)O[C@@H]2C(=O)Nc2ccnc(C(N)=O)c2)ccc(F)c1F` (stereo in doubt) [Compound 4, rel-(2S,3R,5S)-4-[[3-(3,4-difluoro-2-methoxy-phenyl)-5-methyl-5-(trifluoromethyl)tetrahydrofuran-2-carbonyl]amino]pyridine-2-carboxamide], for which the IC50 (read-out: IC50) is over 1 µM.

With `C[C@H]1[C@@H](c2ccc(F)c(F)c2O)[C@H](C(=O)Nc2ccnc(C(N)=O)c2)O[C@@]1(C)C(F)(F)F` [Compound 27, (2R,3S,4S,5R)-4-[[3-(3,4-difluoro-2-hydroxy-phenyl)-4,5-dimethyl-5-(trifluoromethyl)tetrahydrofuran-2-carbonyl]amino]pyridine-2-carboxamide], the IC50 (read-out: IC50) was 0.01 to 0.1 µM.

For `[2H]C([2H])([2H])Oc1c([C@H]2[C@H](C(=O)Nc3cc[n+]([O-])c(C(N)=O)c3)O[C@@](C)(C(F)(F)F)[C@H]2C)ccc(F)c1F` [Compound 56, 4-[[(2R,3S,4S,5R)-3-[3,4-difluoro-2-(trideuteriomethoxy)phenyl]-4,5-dimethyl-5-(trifluoromethyl)tetrahydrofuran-2-carbonyl]amino]-1-oxido-pyridin-1-ium-2-carboxamide], the IC50 (read-out: IC50) is under 0.01 µM.

Turning to `COc1cc(F)ccc1[C@@H]1C[C@](C)(C(F)(F)F)O[C@@H]1C(=O)Nc1ccnc(C(N)=O)c1` (relative stereo) [Compound 70, rel-(2S,3S,5R)-4-[[3-(4-fluoro-2-methoxy-phenyl)-5-methyl-5-(trifluoromethyl)tetrahydrofuran-2-carbonyl]amino]pyridine-2-carboxamide], the IC50 (read-out: IC50) was over 1 µM.

Regarding `COc1c([C@H]2C[C@@H](C(F)(F)F)O[C@@H]2C(=O)Nc2ccnc(C(N)=O)c2)ccc(F)c1F` (stereo in doubt) [Compound 109, rel-(2S,3R,5S)-4-[[3-(3,4-difluoro-2-methoxy-phenyl)-5-(trifluoromethyl)tetrahydrofuran-2-carbonyl]amino]pyridine-2-carboxamide], where the note is “read-out: IC50”, the IC50 is over 1 µM.

In the case of `[2H]C([2H])([2H])Oc1c([C@H]2[C@H](C(=O)Nc3ccnc(C(N)=O)c3)O[C@@](C)(C(F)(F)F)[C@H]2C)ccc(F)c1F` [compound 26], the IC50 was under 0.01 µM.

With `CCc1c(F)ccc([C@H]2C[C@@](C)(C(F)(F)F)O[C@@H]2C(=O)Nc2ccnc(C(N)=O)c2)c1OC` (single isomer, unassigned) [Compound 77], the IC50 (read-out: IC50) was over 1 µM.

With `COc1c([C@@H]2[C@@H](C(=O)Nc3ccnc(C(N)=O)c3)O[C@@](C)(C(F)(F)F)[C@H]2C)ccc(F)c1F` (racemic) [Compound 34, rac-(2S,3R,4S,5R)-4-[[3-(3,4-difluoro-2-methoxy-phenyl)-4,5-dimethyl-5-(trifluoromethyl)tetrahydrofuran-2-carbonyl]amino]pyridine-2-carboxamide], the IC50 is over 1 µM.

Take `C[C@@H]1[C@H](c2ccc(F)c(F)c2)[C@@H](C(=O)Nc2ccnc(C(N)=O)c2)O[C@]1(C)C(F)(F)F` (single isomer, unassigned) [Compound 90]: under “read-out: IC50”, the IC50 is over 1 µM.

`CCOc1c([C@H]2[C@H](C(=O)Nc3cc[n+]([O-])c(C(N)=O)c3)O[C@@](C)(C(F)(F)F)[C@H]2C)ccc(F)c1F` [Compound 55, (2R,3S,4S,5R)-4-[[3-(2-ethoxy-3,4-difluoro-phenyl)-4,5-dimethyl-5-(trifluoromethyl)tetrahydrofuran-2-carbonyl]amino]-1-oxido-pyridin-1-ium-2-carboxamide]: where the note is “read-out: IC50”, the IC50 is under 0.01 µM.

For `Cc1c(F)ccc([C@H]2[C@H](C(=O)Nc3ccnc(C(N)=O)c3)O[C@@](C)(C(F)(F)F)[C@H]2C)c1OC(F)F` (stereo in doubt) [Compound 17, rel-(2R,3S,4S,5R)-4-[[3-[2-(difluoromethoxy)-4-fluoro-3-methyl-phenyl]-4,5-dimethyl-5-(trifluoromethyl)tetrahydrofuran-2-carbonyl]amino]pyridine-2-carboxamide], where the note is “read-out: IC50”, the IC50 is under 0.01 µM.

On to `COc1nc(C(F)(F)F)ccc1[C@@H]1[C@@H](C(=O)Nc2ccnc(C(N)=O)c2)O[C@](C)(C(F)(F)F)[C@@H]1C` (stereo in doubt) [Compound 137, rel-(2S,3R,4R,5S)-4-[[3-[2-methoxy-6-(trifluoromethyl)-3-pyridyl]-4,5-dimethyl-5-(trifluoromethyl)tetrahydrofuran-2-carbonyl]amino]pyridine-2-carboxamide], for which, where the note is “read-out: IC50”, the IC50 was over 1 µM.

As to `COc1c([C@H]2C[C@](C)(CC(F)(F)F)O[C@@H]2C(=O)Nc2ccnc(C(N)=O)c2)ccc(F)c1F` (single isomer, unassigned) [Compound 83], where the note is “read-out: IC50”, the IC50 is 0.1 to 1 µM.

With `CCOc1c([C@H]2[C@H](C(=O)Nc3ccnc(C(N)=O)c3)O[C@@](C)(C(F)(F)F)[C@H]2C)ccc(F)c1F` [Compound 9, (2R,3S,4S,5R)-4-[[3-(2-ethoxy-3,4-difluoro-phenyl)-4,5-dimethyl-5-(trifluoromethyl)tetrahydrofuran-2-carbonyl]amino]pyridine-2-carboxamide], the IC50 (read-out: IC50) was under 0.01 µM.

Take `COc1c([C@H]2C[C@@H](C(F)(F)F)O[C@@H]2C(=O)Nc2ccnc(C(N)=O)c2)ccc(F)c1C` (single isomer, unassigned) [Compound 111]: for the setting “read-out: IC50”, the IC50 was over 1 µM.

Consider `COc1c([C@@H]2[C@H](C)[C@H](C(F)(F)F)O[C@H]2C(=O)Nc2ccnc(C(N)=O)c2)ccc(F)c1F` (relative stereo) [Compound 24, rel-(2R,3S,4S,5R)-4-[[3-(3,4-difluoro-2-methoxy-phenyl)-4-methyl-5-(trifluoromethyl)tetrahydrofuran-2-carbonyl]amino]pyridine-2-carboxamide], for which, under “read-out: IC50”, the IC50 was over 1 µM.

Turning to `COc1c([C@H]2[C@H](C(=O)Nc3ccnc(C(N)=O)c3)O[C@@](C)(C(F)(F)F)[C@H]2C2CC2)ccc(F)c1F` (single isomer, unassigned) [Compound 95], the IC50 (read-out: IC50) is over 1 µM.

For `C[C@H]1[C@@H](c2ccc(F)c(F)c2OC(F)F)[C@H](C(=O)Nc2ccc(F)c(C(N)=O)c2)O[C@@]1(C)C(F)(F)F` (single isomer, unassigned) [Compound 15], under “read-out: IC50”, the IC50 is under 0.01 µM.

For the compound `C[C@H]1[C@@H](c2ccc(F)c(F)c2OC(F)F)[C@H](C(=O)Nc2ccnc(C(N)=O)c2)O[C@@]1(C)C(F)(F)F` [Compound 11, (2R,3S,4S,5R)-4-[[3-[2-(difluoromethoxy)-3,4-difluoro-phenyl]-4,5-dimethyl-5-(trifluoromethyl)tetrahydrofuran-2-carbonyl]amino]pyridine-2-carboxamide], the IC50 (read-out: IC50) was under 0.01 µM.

As for `CCc1c(F)ccc([C@@H]2C[C@](C)(C(F)(F)F)O[C@H]2C(=O)Nc2ccnc(C(N)=O)c2)c1OC` (single isomer, unassigned) [Compound 78], the IC50 (read-out: IC50) lay within 0.01 to 0.1 µM.

`Cc1c(F)ccc([C@H]2[C@H](C(=O)Nc3ccnc(C(N)=O)c3)O[C@@](C)(C(F)(F)F)[C@H]2C)c1OC(F)F` (stereo in doubt) [Compound 16, rel-(2R,3S,4S,5R)-4-[[3-[2-(difluoromethoxy)-4-fluoro-3-methyl-phenyl]-4,5-dimethyl-5-(trifluoromethyl)tetrahydrofuran-2-carbonyl]amino]pyridine-2-carboxamide]: where the note is “read-out: IC50”, the IC50 was over 1 µM.
